Structures are written as SMILES.

The subject of series [1] is testosterone level in NCI-H295R cells. Briefly: cells. Type of series: cell-based. To be noted: Homo sapiens, 72 h; for inhibition at 0.1 µM: read-out: Testosterone level in H295R (Elisa) inh.% 100 nM; for inhibition at 1 µM: read-out: Testosterone level in H295R (Elisa) inh.% 1000 nM; for IC50: read-out: IC50/nM. The method, then: 1. The purpose of the experimental study was intended to detect the testosterone level in the NCI-H295R cells by adopting the Enzyme linked immunosorbent assay (ELISA), so as to evaluate the inhibitory effects of the compounds on the testosterone level in the NCI-H295R cells. The H295R cells were purchased from ATCC, the cell complete medium contained DMEM: F12+ 10% FBS +0.00625 mg/ml insulin +0.00625 mg/ml transferrin+6.25 ng/ml selenium +1.25 mg/ml BSA+0.00535 mg/ml linoleic acid, and the cells were cultured in a 37°C, 5% CO2 incubator. The cells in the exponential growth phase were collected, and cultured in a cytokine-free medium (phenol red 1640-free +1% PS+10% css FBS+1.25 mg/ml BSA +0.00625 mg/ml insulin + 0.00625 mg/ml transferrin+6.25 ng/ml selenium+0.00535 mg/ml linoleic acid) for 3 days. The cells in the exponential growth phase were collected on the third day. The cell suspension was adjusted with a cytokine-free medium to a corresponding concentration and plated at 60000 cells/well, with the volume being 90 µL/well. Subsequently, 10 µL of the compounds at different concentrations was added and the plate was incubated in a CO2 incubator for 3 days. After the incubation was completed, according to the operation instructions for testosterone Elisa kit (Beyotime, PT872), 50 µL of the cell culture supernatant was collected from each well and centrifuged at 500 g for 5 min at room temperature and then the resulting supernatant was collected. The samples were added to the corresponding wells at 25 µl/well, and then formulated horseradish peroxidase labeled testosterone was added at 75 µl/well. The mixture was fully mixed for 10 seconds. The reaction wells were sealed with a plate-sealing film (white) and the mixture was incubated at room temperature in the dark for 120 min. The plate was washed 3 times with a volume of 300 µl per well, and then placed onto thick absorbent paper and dried. Chromogenic reagent TMB solution was added at 100 µl/well. The reaction wells were sealed with a plate-sealing film (white) and the mixture was incubated at room temperature in the dark for 15-20 min. Subsequently, a termination solution was added at 50 µl/well, and after the mixture was fully mixed, the absorbance value OD450 was immediately measured. The absorbance readings were processed using Graphpad Prim 8.0 software and S-shaped concentration curves were plotted and the IC50 values were calculated using a four-parameter non-linear regression model. The results were processed according to formula (1), the inhibition rate of the compound at different concentrations was calculated, and the IC50 value of the compound with an inhibition rate of 50% was calculated using Graphpad Prim 8.0 software, wherein RLU compound was the readout of the treated group, and RLU control was the average value of the solvent control group. Inhibition rate% = 100-RLUcompound /RLUcontrol × 100 [formula] Table 1. Inhibitory activity on testosterone level in NCI-H295R cells

Series [2] is described as follows: Pharmacokinetic test in mice. The note with it: mouse, male ICR mice, plasma; for Vd: read-out: Vdss. Type of series: in vivo. On the procedure:
4.1. Experimental animals: Male ICR mice, 20-25 g, 6 mice/compound, purchased from Chengdu Dossy Experimental Animals Co., Ltd.
4.2 Experimental design: on the day of the experiment, the ICR mice were randomly grouped according to their body weights. […] Table 5. Administration information
vehicle for intravenous administration: 5% DMA+5% HS-15+90% NS; vehicle for intragastric administration: 0.5% MC
Before and after administration, 0.06 mL of blood was taken from the orbit under isoflurane anesthesia and placed in an EDTAK2 centrifuge tube. The tube was centrifuged at 5000 rpm at 4°C for 10 min, and plasma was collected. […] Before analysis and detection, all samples were stored at -80°C, and the samples were quantitatively analyzed by LC-MS/MS. Table 6. Pharmacokinetic parameters of test compounds in plasma of mice

A short description of series [3]: Pharmacokinetic test in beagle dogs. Type of series: in vivo. The note with it: dog, male beagle dogs, plasma. The method, then:
Experimental animals: male beagle dogs, about 8-11 kg, 6 beagle dogs/compound, purchased from Beijing Marshall Biotechnology Co., Ltd.
Experimental method: on the day of the experiment, the beagle dogs were randomly grouped according to their body weights. The animals were fasted with water available for 12-14 h one day before the administration, and were fed 4 h after the administration. Administration was performed as per Table 7.
Test compounds: example compounds and control compounds. Table 7. Administration information
Before and after the administration, 1 ml of blood was taken from the jugular veins or limb veins, and placed in an EDTAK2 centrifuge tube. Centrifugation was performed at 5000 rpm at 4°C for 10 min, and plasma was collected. The blood collection time points for both the intravenous administration group and the intragastric administration group were: 0, 5 min, 15 min, 30 min, 1 h, 2 h, 4 h, 6 h, 8 h, 10 h, 12 h, 24 h, 48 h, and 72 h. Before analysis and detection, all samples were stored at -80°C. The samples were analyzed quantitatively by LC-MS/MS. Table 8. Pharmacokinetic parameters of test compounds in plasma of beagle dogs

For series [4], the system named is pregnenolone level in NCI-H295R cells. The series is described as follows: cells. To be noted: Homo sapiens, 72 h; for IC50: read-out: Pregnenolone level in H295R (Elisa) IC50 nM. Type of series: cell-based. The method, then: 2. The purpose of the experimental study was intended to detect the pregnenolone level in the NCI-H295R cells by adopting the Enzyme linked immunosorbent assay (ELISA), so as to evaluate the inhibitory effects of the compounds on the pregnenolone level in the NCI-H295R cells.
The H295R cells were purchased from ATCC (CRL-2128), the cell complete medium contained DMEM: F12+ 10% FBS +0.00625 mg/ml insulin+0.00625 mg/mL transferrin+6.25 ng/mL selenium+1.25 mg/mL BSA+0.00535 mg/mL linoleic acid, and the cells were cultured in a 37°C, 5% CO2 incubator. The cells in the exponential growth phase were collected, and cultured in a cytokine-free medium (phenol red 1640-free +1% PS+10% css FBS+1.25 mg/mL BSA +0.00625 mg/mL insulin+0.00625 mg/mL transferrin+6.25 ng/mL selenium+0.00535 mg/mL linoleic acid) for 3 days. The cells in the exponential growth phase were collected on the third day. The cell suspension was adjusted with a cytokine-free medium to a corresponding concentration and plated at 60000 cells/well, with the volume being 90 µL/well. Subsequently, 10 µL of the compounds at different concentrations was added and the plate was incubated in a CO2 incubator for 3 days. After the incubation was completed, the cell culture supernatant was collected and centrifuged at 2°C-8°C at 800×g for 10 min. The resulting supernatant was collected. Determination was carried out according to the operation instructions for pregnenolone Elisa kit (Antibodies-A73791), and the OD450 signal was read.
2.1 Standard curve plotting. The standard concentration was taken as the abscissa and the OD450 value as the ordinate, the coordinate points of various standards were connected with a smooth line and a curve was fitted according to the four parameter logistic (4-PL) method.
2.2 Sample quantification: The corresponding concentration (CONC) of testosterone/pregnenolone in the sample was calculated using the absorbance value of the sample and the standard curve. According to formula (2), the inhibition rate of the compound at various concentrations was calculated, and S-shaped concentration curves were plotted and the IC50 values (i.e., concentration of the compound at which the inhibition rate was 50%) were calculated using a three parameter non-linear regression model in Graphpad Prim 8.0 software. CONC cpd was the concentration of the treated group, and CONC ctrl was the average concentration value of the solvent control group. Inhibition rate% = 100%-CONCepd /CONCctrl × 100% [formula]

Series [5] is described as follows: Pharmacokinetic test in rats. Type of series: in vivo. The note with it: rat, male SD rats, plasma; for Vd: read-out: Vdss. The method, then:
3.1 Experimental animals: Male SD rats (about 220 g, 6-8 weeks old, 6 rats/compound), purchased from Chengdu Dossy Experimental Animals Co., Ltd.
3.2 Experimental design: On the day of the experiment, the SD rats were randomly grouped by body weight. […] Table 3. Administration information
Before and after the administration, 0.1 ml of blood was taken from the orbit of the animals under isoflurane anesthesia and placed in an EDTAK2 centrifuge tube. The blood was centrifuged at 5000 rpm and 4°C for 10 min to collect plasma. […] Before analysis and detection, all samples were stored at -80°C. Table 4. Pharmacokinetic parameters of test compounds in plasma of rats

Where [6] appears, read: po, intragastric administration (10 mg/kg).
Setting [7] is: intravenous administration (2.5 mg/kg).
The mark [8] stands for this setting: po, intragastric administration (3 mg/kg).
Setting [9] is: intravenous administration (1 mg/kg).

Regarding `CS(=O)(=O)N1CC(OC(=O)N2CCC3(CC2)CC(Oc2cc(CN4Cc5ccc(C(F)(F)F)cc5C4)ccn2)C3)C1` [Compound 38], in series [1], the inhibition at 0.1 µM is 68.2% and the inhibition at 1 µM came to 81%. In addition, in series [2] (setting [6]), the AUC(0-t) (usually the area under the concentration-time curve up to a stated or last time point) was determined as 13500 ng·h/mL and the half-life (commonly the time needed for the level to fall by half in the phase considered) is 3.65 h. Further, in series [2] (setting [7]), the AUC(0-t) came to 4360 ng·h/mL; the clearance – broadly, the volume of plasma or blood freed of the substance per unit of time – is 9.45 mL/min/kg; the half-life was 4.11 h; the Vd was 2.78 L/kg.
For `CS(=O)(=O)N1CCC(CCOc2cc(CN3Cc4ccc(C5CC5)cc4C3)ccn2)CC1` [Compound 50], in series [1], the IC50 is 130 nM, the inhibition at 0.1 µM is 51.7% and the inhibition at 1 µM amounted to 89.4%. In series [2] (setting [6]), this molecule had an AUC(0-t) of 7780 ng·h/mL and a half-life of 2.73 h. Also, in series [2] (setting [7]), the AUC(0-t) is 2360 ng·h/mL, the clearance was found to be 17.3 mL/min/kg, the half-life is 3 h and the Vd is 3.37 L/kg.
As for `[2H]C([2H])([2H])C(=O)N[C@H]1CC[C@H](c2cc3oc(CN4Cc5ccc(C(F)(F)F)cc5C4)cc(=O)c3o2)CC1` [Compound 58], the results for the IC50 in series [1] and in series [4] were 57 nM and 160 nM, respectively. Besides, the AUC(0-t) in series [3] (setting [8]) was determined as 24800 ng·h/mL; in series [3] (setting [9]) it was 14000 ng·h/mL; in series [2] (setting [6]), 9460 ng·h/mL; in series [2] (setting [7]), 2960 ng·h/mL. Further, the half-life in series [3] (setting [8]) is 6.79 h; in series [3] (setting [9]), 10.2 h; in series [2] (setting [6]) it was 2.08 h; in series [2] (setting [7]) it was 2.77 h. For the same molecule, the values for the clearance in series [3] (setting [9]) and in series [2] (setting [7]) were 1.24 mL/min/kg and 14.2 mL/min/kg, respectively. The Vd in series [3] (intravenous administration (1 mg/kg), read-out: Vdss) came out at 0.87 L/kg; in series [2] (setting [7]), 1.34 L/kg.
Turning to `[2H]C([2H])([2H])C(=O)N[C@H]1CC[C@H](CCOc2cc(CN3Cc4ccc(C(F)(F)F)cc4C3)ccn2)CC1` [Compound 62], the IC50 in series [1] turned out to be 151 nM. For the same molecule, the IC50 in series [4] turned out to be 142 nM. Also, in series [5] (setting [6]), the AUC(0-t) came to 41500 ng·h/mL and the half-life is 4.13 h. For the same molecule, in series [5] (setting [7]), the area under the curve AUC(0-t) is 10800 ng·h/mL, the clearance was found to be 3.97 mL/min/kg, the half-life was 3.81 h and the Vd was determined as 1.11 L/kg.
`[2H]C([2H])([2H])n1cc(C(=O)N[C@H]2CC[C@H](CCOc3cc(CN4Cc5ccc(C(F)(F)F)cc5C4)ccn3)CC2)cn1` [Compound 63]: in series [1], the IC50 worked out at 92 nM, the inhibition at 0.1 µM is 64.4% and the inhibition at 1 µM was 76.4%. In series [2] (setting [6]), this molecule had an AUC(0-t) of 20800 ng·h/mL and a half-life of 6.62 h. In series [2] (setting [7]), the AUC(0-t) amounted to 5530 ng·h/mL, the clearance amounted to 7.37 mL/min/kg, the half-life was 4.7 h and the Vd was 2.36 L/kg. Further, the IC50 in series [4] worked out at 272 nM.
For the molecule `O=C(N[C@H]1CC[C@H](CCOc2cc(CN3Cc4ccc(C(F)(F)F)cc4C3)ccn2)CC1)C1CC1` [Compound 65], in series [1], the IC50 turned out to be 168 nM, the inhibition at 0.1 µM worked out at 71% and the inhibition at 1 µM amounted to 75%. Also, the IC50 in series [4] turned out to be 319 nM. Besides, in series [5] (setting [6]), the AUC(0-t) was found to be 7550 ng·h/mL and the half-life is 6.58 h. For the same molecule, in series [5] (setting [7]), the AUC(0-t) turned out to be 2150 ng·h/mL, the clearance is 17.4 mL/min/kg, the half-life was 8.25 h and the Vd stood at 8.8 L/kg.
In the case of `O=C(N[C@H]1CC[C@H](CCOc2cc(CN3Cc4ccc(C(F)(F)F)cc4C3)ccn2)CC1)[C@@H]1CC1(F)F` [Compound 71], the inhibition at 0.1 µM came out at 74.9% in series [1] and 43.9% in series [4] (read-out: Pregnenolone level in H295R (Elisa) inh.% 100 nM). The inhibition at 1 µM amounted to 86.9% in series [1] and 57.5% in series [4] (read-out: Pregnenolone level in H295R (Elisa) inh.% 1000 nM).

For the origin of these results see patent EP4700022A1, “CYP11A1 INHIBITORS AND USE THEREOF” (Xizang Haisco Pharmaceutical Co., Ltd., priority 2023, dated 2024).
